Among the data in ChEMBL document CHEMBL1132772, “NMR line-broadening and transferred NOESY as a medicinal chemistry tool for studying inhibitors of the hepatitis C virus NS3 protease domain” (Bioorg Med Chem Lett, 2000) are IC50 values, retold here.

Starred links: 1 amine or outer side, 2 acyl side, 3 side chain; linkers in the order of their positions; H or OH if unused. Non-standard residues stand in square brackets, D forms with d. Residues, ends and D or L forms follow the SMILES beside them. *: point of attachment. CH2(1-naphthyl) = c1ccc2c(C*)cccc2c1; Hyp = O=C(O)[C@@H]1C[C@@H](O)CN1; Suc = O=C(CCC(=O)[*:2])[*:1]; Nva = CCC[C@H](N)C(=O)O; Ac3c = NC1(C(=O)O)CC1

This assay has as its target NS3 (Hepatitis C virus, UniProt A3EZJ3). The assay is described as follows: Inhibitory concentration required against NS3 Protease of Hepatitis C Virus. The arrangement: species or system Hepacivirus hominis.

A word on the IC50: it is the concentration that gives 50% inhibition. Lower therefore signals higher potency.

Chain of NS3 (A3EZJ3 whole entry): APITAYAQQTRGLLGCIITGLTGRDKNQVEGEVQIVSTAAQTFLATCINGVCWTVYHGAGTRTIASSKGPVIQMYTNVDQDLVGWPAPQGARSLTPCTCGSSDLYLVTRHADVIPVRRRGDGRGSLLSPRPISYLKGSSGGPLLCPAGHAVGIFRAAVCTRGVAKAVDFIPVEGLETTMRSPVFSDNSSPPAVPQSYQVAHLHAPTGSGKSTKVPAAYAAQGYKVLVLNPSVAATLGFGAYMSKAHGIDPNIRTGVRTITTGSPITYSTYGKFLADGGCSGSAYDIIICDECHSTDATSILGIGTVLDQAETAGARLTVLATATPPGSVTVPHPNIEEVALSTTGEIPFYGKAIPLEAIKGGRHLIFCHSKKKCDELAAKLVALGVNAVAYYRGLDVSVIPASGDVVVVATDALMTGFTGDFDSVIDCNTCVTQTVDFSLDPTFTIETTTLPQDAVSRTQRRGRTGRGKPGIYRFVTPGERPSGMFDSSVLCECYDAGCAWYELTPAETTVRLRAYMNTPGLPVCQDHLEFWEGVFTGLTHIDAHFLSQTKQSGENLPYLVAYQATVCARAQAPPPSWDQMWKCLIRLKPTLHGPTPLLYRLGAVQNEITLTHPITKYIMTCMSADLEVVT

For the molecule `CCC[C@H](NC(=O)[C@@H]1C[C@@H](OCc2cccc3ccccc23)CN1C(=O)[C@@H](NC(=O)[C@@H](NC(=O)CCC(=O)O)[C@@H](C)CC)C(C)C)C(=O)O` (Suc-IV[Hyp](CH2(1-naphthyl))[Nva]-OH), the IC50 is 22 µM. That is a double-digit micromolar value. `CC[C@H](C)[C@H](NC(=O)CCC(=O)O)C(=O)N[C@H](C(=O)N1C[C@H](OCc2cccc3ccccc23)C[C@H]1C(=O)NC1(C(=O)O)CC1)C(C)C` (Suc-IV[Hyp](CH2(1-naphthyl))[Ac3c]-OH) gave an IC50 of 5.5 µM.
